# US7838580B2, “Salts of alkyl esters of carboxyethyl(alkyl)phosphinic acid” (Clariant Finance (BVI) Limited, priority 2006, dated 2010)
# Test: Differential thermal analysis (decomposition temperature)
# Format: physicochemical
# Conditions: ° C. for 2% weight loss
# Experimental: The decomposition temperature and the average particle diameter are determined on a flame retardant of the prior art—Exolit® OP 1230.
row,SMILES,DTA (decomposition in differential thermal analysis)
1,"COC(=O)CCP(C)(=O)[O-].COC(=O)CCP(C)(=O)[O-].[Mg+2] [Example 11, H3C—P(═O)(OMg1/2)—CH2—CH2—CO2CH3]",282 °C
2,"COC(=O)CCP(C)(=O)[O-].COC(=O)CCP(C)(=O)[O-].COC(=O)CCP(C)(=O)[O-].[Al+3] [Example 10, H3C—P(═O)(OAl1/3)—CH2—CH2—CO2CH3]",330 °C
3,"COC(=O)CCP(C)(=O)[O-].COC(=O)CCP(C)(=O)[O-].[Ca+2] [Example 13, H3C—P(═O)(OCa1/2)—CH2—CH2—CO2CH3]",317 °C

# Now from value to compound:
row,DTA (decomposition in differential thermal analysis),SMILES
1,334 °C,"COC(=O)CCP(C)(=O)[O-].COC(=O)CCP(C)(=O)[O-].[Zn+2] [Example 12, H3C—P(═O)(OZn1/2)—CH2—CH2—CO2CH3]"
2,323 °C,"CCCCCCCCOC(=O)CCP(C)(=O)[O-].CCCCCCCCOC(=O)CCP(C)(=O)[O-].[Zn+2] [Example 14, H3C—P(═O)(OZn1/2)—CH2—CH2—CO2C8H17]"
